Test results taken from patent US9512474B2, “Molecular targets and methods for formulation screening and preservative efficacy testing” (LONZA WALKERSVILLE INC., priority 2011, dated 2016).
Several values for one entry are separate records, joined by “and”; a condition that tells them apart may be missing. Identical values can stand only once.

Experiments:
Type in all cases: cell-based
[1] = system: Candida albicans; assay: EF-3 mRNA RT-PCR viability assay (preservative efficacy testing); details: 10^5 cells
Description: The specific system for C. albicans is designed on the mRNA of the EF-3 gene. This system is species-specific. The forward primer, the forward probe and the reverse primer hybridize in the internal sequence of the mRNA of the EF-3 gene. The amplification is thus effective only if the EF-3 mRNAs are present in the cells. FIG. 5 illustrates C. albicans EF-3 mRNA specific system designed in the internal sequence of the EF-3 mRNA for use with RT-PCR (forward primer, reverse primer, and forward probe).
(§1) Assays such as those disclosed herein, and assays developed under the guidelines of the provided examples, can be used in Formulation Screening and/or Preservative Efficacy Testing. An exemplary protocol is as follows: non-treated (or viable) and preservative-treated cells are analyzed in parallel with the same procedure and the same reagents: • Cells are calibrated to an expected density (CFU/ml) and collected by centrifugation on a filter membrane. • Two milliliters of RNA Booster (nutrients) are applied to the membrane of the filtration unit and these are incubated two hours for bacteria and four hours for fungi at 35° C.±2° C. (or appropriate temperature). • After incubation, the filtration units are centrifuged to remove the RNA Booster and 1.5 milliliters of lysis buffer are added to each membrane. • Cell lysates are recovered manually by pipetting and transferred into a lysis tube for a mechanical lysis process. • Lysate is then transferred in a sample prep tube. • RNA is extracted and purified using a known nucleic acid isolation method (i.e., RNA magnetic beads, silica resin). • DNA is removed by DNAse treatment to ensure predominantly an RNA target. • Eluted RNA is amplified by RT-PCR. The master mix used for the RT-PCR contains all reagents needed for the RT-PCR including specific primers and probe targeting the pre-rRNA or EF-3 mRNA sequences.
(§2) The referenced guidelines followed for this assay are the European Pharmacopoeia (EP)—Chapter 5.1.3 <<Efficacy of Antimicrobial Preservation>> and the United States Pharmacopeia (USP)—Chapter 51 <<Antimicrobial Effectiveness Testing>>. The value obtained by RT-PCR for the non-treated cells is compared to the value obtained for the treated cells. As used herein Ct stands for threshold cycle; i.e., the intersection between an amplification curve and a threshold line. According to the EP requirements, in a positive result as disclosed herein the difference of the Ct values is at least 3 logs, which corresponds to a ΔCt≧10 for bacteria and at least 2 logs, which corresponds to a ΔCt≧6.6 for fungi, after one day (24 hours) and seven days, respectively, for bacteria and fungi, of preservative treatment. USP requires data analysis after seven days and fourteen days for bacteria and fungi, respectively.
(§3) Preservative treatments were evaluated at high cells concentrations (10^6 and 10^5 cells per assay) that are commonly used for formulation screening. Five replicates at each cell concentration were analyzed. The Ct value corresponds to the RT-PCR cycle for which the level of fluorescence is outside the fluorescence background. The method compares Ct values for non-treated and treated cells and is expressed as the ΔCt.
(§4) The tables set forth below summarize the Ct values obtained for six bacteria and two fungi using six treatments: Heat, Isopropanol, Preservatives BAC, Poly-Q and IPBC and a commercial contact lens solution. Ct values obtained for non-treated cells (viable) are compared to Ct values obtained for treated cells. The ΔCt calculated is reported and must be ≧10 to meet the specification of 3 logs reduction for bacteria and must be ≧6.6 to meet the specification of 2 logs reduction for fungi. All assays are performed on the BD Max6 instrument from Becton Dickinson. Data are obtained by multiple operators on different days.

[2] = system: Aspergillus brasiliensis; assay: pre-rRNA RT-PCR viability assay (preservative efficacy testing); details: 10^6 cells
Description: The specific system for A. brasiliensis is designed on the 5′ end of the 5.8S rRNA. This system is species-specific. The forward primer hybridizes in the pre-rRNA region and the reverse primer and the forward probe in the mature rRNA region. The amplification is thus effective only if pre-rRNAs are present in the cells. FIG. 4 illustrates A. brasiliensis pre-rRNA-specific systems designed in the 5′ end of the 5.8S pre-rRNA for use with RT-PCR (forward primer, reverse primer, and forward probe).
as §1, §2, §3, §4

[3] = system: Serratia marcescens; assay: as above
Description: (§5) The specific systems for E. coli, B. subtilis and S. marcescens are designed on the 3′ end of the 16S rRNA transcript. The three systems are species-specific. In these examples, the reverse primer hybridizes on the pre-rRNA region and the forward primer and probe in the mature rRNA region. The amplification will therefore be effective only if pre-rRNAs are present in the cells. FIG. 2 illustrates E. coli, B. subtilis and S. marcescens pre-rRNA-specific systems designed in the 3′ end of the 16S pre-rRNA for use with RT-PCR (forward primer, reverse primer, and forward probe).
as §1, §2, §3, §4

[4] = system: Escherichia coli; assay: as above
Description: as §5, §1, §2, §3, §4

[5] = system: Staphylococcus aureus; assay: Control plate of treated cells (colonies); details: 10^6 cells
[6] = system: Candida albicans; assay: Control plate of treated cells (colonies); details: from day 1 to day 14 at room temperature (day not specified); 10^5 cells
[7] = system: Serratia marcescens; assay: Control plate of treated cells (colonies); details: 10^6 cells
[8] = system: Pseudomonas aeruginosa; assay: Control plate of treated cells (colonies); details: 10^6 cells
[9] = system: Staphylococcus aureus; assay: pre-rRNA RT-PCR viability assay (preservative efficacy testing)
Description: (§6) The specific systems for S. aureus, P. aeruginosa and S. epidermidis are designed on the 5′ end of the 23S rRNA. The three systems are species-specific. The forward primer hybridizes in the pre-rRNA region and the reverse primer and the forward probe in the mature rRNA region. The amplification is thus effective only if pre-rRNAs are present in the cells. FIG. 3 illustrates S. aureus, P. aeruginosa and S. epidermidis pre-rRNA-specific systems designed in the 5′ end of the 23S pre-rRNA for use with RT-PCR (forward primer, reverse primer, and forward probe).
as §1, §2, §3, §4

[10] = system: Pseudomonas aeruginosa; assay: as above
Description: as §6, §1, §2, §3, §4

[11] = system: Escherichia coli; assay: Control plate of treated cells (colonies); details: 10^6 cells
[12] = system: Aspergillus brasiliensis; assay: Control plate of treated cells (colonies); details: from day 1 to day 7 at room temperature (day not specified); 10^6 cells
[13] = 24 H at room temperature, 10^5 cells
[14] = 24 H at room temperature, 10^6 cells
[15] = 1 H at room temperature, 10^5 cells
[16] = 1 H at room temperature, 10^6 cells

## Benzalkonium Chloride [BAC]
[1]; Day 1 at room temperature
  Ct Treated: 33.70 and 32.70 and 31.60 and 29.30
  Mean Ct (Treated): 32.00
  Δ Ct Viable − Dead: 13.90
[1]; Day 7 at room temperature
  Mean Ct (Treated): 33.67
  Δ Ct Viable − Dead: 15.57
[1]; Day 14 at room temperature
  Mean Ct (Treated): 32.23
  Δ Ct Viable − Dead: 14.13
[2]; Day 1 at room temperature
  Ct Treated: 21.80 and 21.60 and 22.10
  Mean Ct (Treated): 21.83
  Δ Ct Viable − Dead: 11.63
[2]; Day 2 at room temperature
  Ct Treated: 22.40 and 21.90 and 23.90
  Mean Ct (Treated): 22.73
  Δ Ct Viable − Dead: 12.53
[2]; Day 7 at room temperature
  Ct Treated: 22.60 and 24.70 and 22.50
  Mean Ct (Treated): 23.27
  Δ Ct Viable − Dead: 13.07
[3]; [13]
  Mean Ct (Treated): 36.13
  Δ Ct Viable − Dead: 20.09
[3]; [14]
  Ct Treated: 34.20 and 34.30 and 32.80 and 35.50
  Mean Ct (Treated): 34.20
  Δ Ct Viable − Dead: 22.28
[4]; [13]
  Ct Treated: 32.65 and 31.54 and 31.77 and 32.76 and 32.45
  Mean Ct (Treated): 32.23
  Δ Ct Viable − Dead: 18.57
[4]; [14]
  Ct Treated: 32.61 and 34.26 and 33.74 and 30.48 and 33.39
  Mean Ct (Treated): 32.90
  Δ Ct Viable − Dead: 21.33
[5]; 24 H at room temperature
  Colonies on control plate of treated cells: NC = Negative Control - Control plate of treated cells (10^6 cells) shows no colony on plate.
[6]
  Colonies on control plate of treated cells: NC = Negative Control - Control plate of treated cells (10^5 cells) shows no colony on plate.
[7]; 24 H at room temperature
  Colonies on control plate of treated cells: NC = Negative Control - Control plate of treated cells (10^6 cells) shows no colony on plate.
[8]; 24 H at room temperature
  Colonies on control plate of treated cells: NC = Negative Control - Control plate of treated cells (10^6 cells) shows no colony on plate.
[9]; [13]
  Ct Treated: 29.75 and 30.23 and 29.39 and 29.28 and 30.03
  Mean Ct (Treated): 29.73
  Δ Ct Viable − Dead: 12.29
[9]; [14]
  Ct Treated: 26.23 and 27.50 and 26.54 and 26.71 and 26.64
  Mean Ct (Treated): 26.72
  Δ Ct Viable − Dead: 12.65
[10]; [13]
  Mean Ct (Treated): 31.92
  Δ Ct Viable − Dead: 12.39
[10]; [14]
  Mean Ct (Treated): 30.72
  Δ Ct Viable − Dead: 14.53
[11]; 24 H at room temperature
  Colonies on control plate of treated cells: NC = Negative Control - Control plate of treated cells (10^6 cells) shows no colony on plate.
[12]
  Colonies on control plate of treated cells: NC = Negative Control - Control plate of treated cells (10^6 cells) shows no colony on plate.

## CC(C)O [Isopropanol]
[3]; [15]
  Ct Treated: 29.10 and 30.70 and 31.00 and 29.90 and 30.30
  Mean Ct (Treated): 30.20
  Δ Ct Viable − Dead: 13.20
[3]; [16]
  Ct Treated: 26.90 and 26.20 and 25.90 and 25.40 and 25.50
  Mean Ct (Treated): 25.98
  Δ Ct Viable − Dead: 13.18
[4]; [15]
  Ct Treated: 33.02 and 33.36 and 32.52 and 31.38 and 31.93
  Mean Ct (Treated): 32.44
  Δ Ct Viable − Dead: 17.56
[4]; [16]
  Ct Treated: 32.91 and 32.51 and 32.31 and 32.98 and 33.93
  Mean Ct (Treated): 32.93
  Δ Ct Viable − Dead: 21.00
[5]; 1 H at room temperature
  Colonies on control plate of treated cells: NC = Negative Control - Control plate of treated cells (10^6 cells) shows no colony on plate.
[7]; 1 H at room temperature
  Colonies on control plate of treated cells: NC = Negative Control - Control plate of treated cells (10^6 cells) shows no colony on plate.
[8]; 1 H at room temperature
  Colonies on control plate of treated cells: NC = Negative Control - Control plate of treated cells (10^6 cells) shows no colony on plate.
[9]; [15]
  Ct Treated: 29.99 and 29.43 and 29.12 and 29.97 and 29.89
  Mean Ct (Treated): 29.68
  Δ Ct Viable − Dead: 12.80
[9]; [16]
  Ct Treated: 26.32 and 26.40 and 25.27 and 24.94 and 26.57
  Mean Ct (Treated): 25.90
  Δ Ct Viable − Dead: 13.09
[10]; [15]
  Ct Treated: 34.62 and 34.83 and 34.29 and 33.99 and 38.81
  Mean Ct (Treated): 35.31
  Δ Ct Viable − Dead: 10.99
[10]; [16]
  Ct Treated: 34.59 and 33.28 and 33.21 and 34.18 and 33.26
  Mean Ct (Treated): 33.70
  Δ Ct Viable − Dead: 13.45
[11]; 1 H at room temperature
  Colonies on control plate of treated cells: NC = Negative Control - Control plate of treated cells (10^6 cells) shows no colony on plate.
